Results reported in ChEMBL document CHEMBL2375293, “Identification of benzofurano[3,2-d]pyrimidin-2-ones, a new series of HIV-1 nucleotide-competing reverse transcriptase inhibitors” (Bioorg Med Chem Lett, 2013).
Converted amounts (≈) assume the structure as drawn.

Columns and labels:
[1] = Inhibition of HIV1 BH10 reverse transcriptase using poly(rA)/oligo(dT)15 as substrate after 60 mins by fluorescence assay; parameters: species or system Human immunodeficiency virus type 1 BH10
[2] = Cytotoxicity against human C8166 cells assessed as inhibition of cell viability after 3 days by MTT assay; assay type: cell-based
[3] = Antiviral activity against wild type HIV1 BH10 infected in human C8166 cells after 3 days by luciferase reporter gene assay; assay type: functional, cell-based, Human immunodeficiency virus type 1 BH10; conditions: Human immunodeficiency virus 1, C8166, 72 h
[4] = Cytotoxicity against human C8166 cells assessed as inhibition of cell viability at CC50 after 3 days by MTT assay; assay type: cell-based; conditions: read-out: INH
[5] = Half life in Sprague-Dawley rat liver microsomes at 1 uM by LC-MS/MS analysis; assay type: ADME, Microsome
[6] = Solubility of the compound in phosphate buffer at pH 2 after 24 hrs by LC-MS analysis; assay type: physicochemical
[7] = Ratio of EC50 for wild type HIV1 BH10 infected in human C8166 cells in presence of serum to EC50 for wild type HIV1 BH10 infected in human C8166 cells in absence of serum; assay type: functional, Human immunodeficiency virus type 1 BH10
[8] = n-Octanol-phosphate buffer partition coefficient, log D of the compound at 0.5 mg after 24 hrs by LC-MS analysis; assay type: physicochemical
[9] = Half life in human liver microsomes at 1 uM by LC-MS/MS analysis; assay type: ADME, Microsome
[10] = Ratio of CC50 for human C8166 cells to EC50 for wild type HIV1 BH10 infected in human C8166 cells
[11] = Apparent permeability across human Caco2 cells at 10 uM by LC-MS/MS analysis; assay type: ADME, cell-based; conditions: Caco-2
[12] = test system: Human immunodeficiency virus type 1 BH10; assay: Selectivity ratio of EC50 for HIV1 BH10 harboring reverse transcriptase Y115F/M184V double mutant to EC50 for wild type HIV1 BH10; assay type: functional
[13] = test system: Human immunodeficiency virus type 1 BH10; assay: Selectivity ratio of EC50 for HIV1 BH10 harboring reverse transcriptase M184V mutant to EC50 for wild type HIV1 BH10; assay type: functional
[14] = test system: Human immunodeficiency virus type 1 BH10; assay: Selectivity ratio of EC50 for HIV1 BH10 harboring reverse transcriptase K65R mutant to EC50 for wild type HIV1 BH10; assay type: functional
[15] = Solubility of the compound in phosphate buffer at pH 6.8 after 24 hrs by LC-MS analysis; assay type: physicochemical
[16] = test system: Human immunodeficiency virus type 1 BH10; assay: Selectivity ratio of EC50 for HIV1 BH10 harboring reverse transcriptase K103N/Y181C double mutant to EC50 for wild type HIV1 BH10; assay type: functional
[17] = test system: Human immunodeficiency virus type 1 BH10; assay: Selectivity ratio of EC50 for HIV1 BH10 harboring reverse transcriptase Y115F mutant to EC50 for wild type HIV1 BH10; assay type: functional

| SMILES | IC50 [1] [nM] | EC50 [3] [nM] | CC50 at 72 h [2] [nM] | further results |
| --- | --- | --- | --- | --- |
| O=c1nc(-c2ccccc2)c2oc3ccccc3c2n1CCN1CCOCC1 | > 26000 |  |  |  |
| CCNCC(=O)Nc1ccc(-c2nc(=O)n(CCOC)c3c2oc2ccc(-c4ccc(CN(C)C)cc4)cc23)cc1 | 12 | 94 | 3900 |  |
| COCCn1c(=O)nc(-c2ccc(OCCN(C)C)cc2)c2oc3ccccc3c21 | 630 | 14000 |  |  |
| CCNCC(=O)Nc1ccc(-c2nc(=O)n(CCOC)c3c2oc2cc(-c4ccc5c(c4)CCN(C)C5)ccc23)cc1 | 8.6 | 88 | 2100 |  |
| CCNCC(=O)Nc1ccc(-c2nc(=O)n(CCOC)c3c2oc2ccc(-c4ccc(CO)cc4)cc23)cc1 | 34 | 300 | > 1300 |  |
| CN1CCc2cc(-c3ccc4oc5c(-c6ccccc6)nc(=O)n(CCN6CCC(F)(F)C6)c5c4c3)ccc2C1 | 20 | 25 |  | half-life at 1 µM [5]: 0.1 h; solubility at 24 h [6]: > 1000 µg/mL; Ratio EC50 [7]: 7.3; logD at 24 h [8]: 3.9; half-life at 1 µM [9]: 0.317 h; Ratio CC50/EC50 [10]: >46; Papp at 10 µM [11]: 0.55 ×10⁻⁶ cm/s; Ratio EC50 [12]: 14.8; Ratio EC50 [13]: 4.8; Ratio EC50 [14]: 0.3; solubility at 24 h [15]: < 0.1 µg/mL; Ratio EC50 [16]: 1.7 |
| COCCn1c(=O)nc(-c2ccc(NC(=O)C(C)N(C)C)cc2)c2oc3ccccc3c21 (centres undefined) | 1400 | 4400 | > 11000 | cytotoxicity at 72 h [4]: 14% |
| O=c1nc(-c2ccccc2)c2oc3ccccc3c2n1CCN1CCCC1 | 4200 | 11000 | 18000 |  |
| CN(C)CC(=O)Nc1ccc(-c2nc(=O)n(C)c3c2oc2ccccc23)cc1 | 3100 | 1600 | 7700 |  |
| O=c1nc(-c2ccccc2)c2oc3ccc(Cl)cc3c2n1CCN1CCC(F)(F)C1 | 320 | 2900 | > 4500 |  |
| NC(=O)C1CCCN1CCn1c(=O)nc(-c2ccccc2)c2oc3ccc(Cl)cc3c21 (centres undefined) | 650 | 2600 | > 6700 |  |
| CCNCC(=O)Nc1ccc(-c2nc(=O)n(CCOC)c3c2oc2ccc(-c4ccc5c(c4)CCN(C)C5)cc23)cc1 | 4.2 | 30 | 4800 | half-life at 1 µM [5]: 2.33 h; solubility at 24 h [6]: > 822 µg/mL; Ratio EC50 [7]: 1.5; logD at 24 h [8]: 2.4; half-life at 1 µM [9]: 1.55 h; Ratio CC50/EC50 [10]: 137; Ratio EC50 [17]: 2; Papp at 10 µM [11]: < 0.1 ×10⁻⁶ cm/s; Ratio EC50 [12]: 3.3; Ratio EC50 [13]: 1.1; Ratio EC50 [14]: 0.1; solubility at 24 h [15]: 650 µg/mL (≈ 1150 µM); Ratio EC50 [16]: 1.1 |
| CCNCC(=O)Nc1ccc(-c2nc(=O)n(CCOC)c3c2oc2cc(-c4ccc(CN(C)C)cc4)ccc23)cc1 | 7.4 | 53 | 1000 |  |
| CCNCC(=O)Nc1ccc(-c2nc(=O)n(CCOC)c3c2oc2ccccc23)cc1 | 73 | 680 | 5100 |  |
| CN1CCc2cc(-c3ccc4oc5c(-c6ccccc6)nc(=O)n(CCN6CCCC6C(N)=O)c5c4c3)ccc2C1 (centres undefined) | 5.9 | 52 |  | half-life at 1 µM [5]: 1 h; solubility at 24 h [6]: 781 µg/mL (≈ 1430 µM); Ratio EC50 [7]: 8.4; logD at 24 h [8]: 3; half-life at 1 µM [9]: 1.22 h; Ratio CC50/EC50 [10]: >127; Papp at 10 µM [11]: 0.17 ×10⁻⁶ cm/s; Ratio EC50 [12]: 14.2; Ratio EC50 [13]: 5.8; Ratio EC50 [14]: 0.3; solubility at 24 h [15]: 725 µg/mL (≈ 1320 µM); Ratio EC50 [16]: 1.7 |
| Cn1c(=O)nc(-c2ccccc2)c2oc3ccccc3c21 | > 83000 |  |  |  |
| COCCn1c(=O)nc(-c2ccc(C(=O)NCCN(C)C)cc2)c2oc3ccccc3c21 | 945 | > 9300 |  |  |
| CCNCC(=O)Nc1ccc(-c2nc(=O)n(CCOC)c3c2oc2ccc(-c4ccccc4)cc23)cc1 | 33 | 360 | 2300 |  |
| CCNCC(=O)Nc1ccc(-c2nc(=O)n(CCOC)c3c2oc2ccc(-c4cccnc4)cc23)cc1 | 27 | 200 | > 5100 | cytotoxicity at 72 h [4]: 33% |
| O=c1nc(-c2ccccc2)c2oc3ccc(Cl)cc3c2n1CCN1CCOCC1 | 6500 |  |  |  |
| COCCn1c(=O)nc(-c2ccc(NC(=O)CN(C)C)cc2)c2oc3ccccc3c21 | 1200 | 3600 | > 11000 | cytotoxicity at 72 h [4]: 15% |
| COCCn1c(=O)nc(-c2ccc(COCCN(C)C)cc2)c2oc3ccccc3c21 | 818 | > 11000 |  |  |

Now from value to compound, other results behind:

| IC50 [1] [nM] | EC50 [3] [nM] | SMILES | CC50 at 72 h [2] [nM] | further results |
| --- | --- | --- | --- | --- |
| 590 | 3700 | O=c1nc(-c2ccccc2)c2oc3ccc(Cl)cc3c2n1CCN1CCCC1 | > 7300 | cytotoxicity at 72 h [4]: 6% |
| 10 | 87 | CNCCNc1ccc(-c2nc(=O)n(CCOC)c3c2oc2ccc(Cl)cc23)cc1 | 960 |  |
| 40 | 210 | CNC1CCN(c2ccc(-c3nc(=O)n(CCOC)c4c3oc3ccc(Cl)cc34)cn2)C1 (centres undefined) | 4300 |  |
| > 5000 |  | COCCn1c(=O)nc(-c2ccnc(N3CCN(C)CC3)c2)c2oc3ccc(Br)cc3c21 |  |  |
| 46 | 550 | CCNCC(=O)Nc1ccc(-c2nc(=O)n(CCOC)c3c2oc2ccc(Cl)cc23)cc1 | 3000 |  |
| 75 | 890 | COCCn1c(=O)nc(-c2ccc(N3CCN(C)CC3)nc2)c2oc3ccc(Cl)cc3c21 | > 5800 | cytotoxicity at 72 h [4]: 37% |
| 120 | 2400 | COCCn1c(=O)nc(-c2ccc(NCCN3CCCC3)cc2)c2oc3ccccc3c21 | > 7400 |  |
| 42 | 540 | CCNCc1nc2cc(-c3nc(=O)n(CCOC)c4c3oc3ccc(Br)cc34)ccc2n1C | > 4400 | cytotoxicity at 72 h [4]: 20% |
| 390 | 1100 | COCCn1c(=O)nc(-c2ccc(NC(=O)CN3CCCC3)cc2)c2oc3ccccc3c21 | 5950 |  |
| 155 | 690 | COCCn1c(=O)nc(-c2cnc(N3CCN(C)CC3)nc2)c2oc3ccccc3c21 | > 9500 | cytotoxicity at 72 h [4]: 40% |
| 24 | 430 | COCCn1c(=O)nc(-c2ccc(N3CCN(C)CC3)cc2)c2oc3ccc(Cl)cc3c21 | > 4500 | cytotoxicity at 72 h [4]: 18% |
| 10 | 175 | COCCn1c(=O)nc(-c2ccc(N3CCNCC3)cc2)c2oc3ccc(Cl)cc3c21 | 2700 |  |
